# Test results taken from patent US20030054411A1, “GPR motifs and uses thereof” (priority 2001, published 2003).
# Where no end group is shown, it is not given here.
# How the values were obtained:
# [1] = molecular target: T1, Giα1 binding to GST-AGS3-GPR (Homo sapiens, UniProt P63096); experiment: Protein interaction assay: Giα1 binding to AGS3-GPR with GPR peptide; conditions: 10 μM GDP; Giα1 75 nM, AGS3-GPR 300 nM; read-out: IC50 for blocking the binding of Giα1 to GST-AGS3-GPR
# T1 construct: made in house; host or cells: Sf9 insect cells (Giα1); bacteria (His-AGS3-GPR)
# T1 sequence (P63096 2-354 limits assumed): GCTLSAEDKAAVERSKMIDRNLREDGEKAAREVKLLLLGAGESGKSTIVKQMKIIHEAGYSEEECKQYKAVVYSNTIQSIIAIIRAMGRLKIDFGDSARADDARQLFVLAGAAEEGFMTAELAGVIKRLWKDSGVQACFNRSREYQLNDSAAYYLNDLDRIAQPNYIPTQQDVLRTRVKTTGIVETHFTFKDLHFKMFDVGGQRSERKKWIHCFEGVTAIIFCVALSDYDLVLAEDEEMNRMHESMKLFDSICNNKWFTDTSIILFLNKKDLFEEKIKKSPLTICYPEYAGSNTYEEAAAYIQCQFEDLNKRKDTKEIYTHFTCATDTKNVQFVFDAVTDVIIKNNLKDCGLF
# Method: (§1) A and B, the carboxyl region of AGS3 (Pro^463-Ser^650) containing all four GPR repeats was generated as a His-tagged (A) or GST fusion (B) protein for protein interaction assays as described under Examples. All interactions were done in the presence of 10 μM GDP, and the input lanes represent one-tenth of the G-protein used in each interaction assay. A, Giα1 (75 nM) was incubated with 300 nM His-tagged AGS3-GPR in the absence and presence of increasing amounts of the GPR peptide, after which bound Giα was isolated on a nickel affinity matrix, and samples were processed for immunoblotting with Giα antisera. […] C and D, GTPγ^35S binding to G-proteins (100 nM) was measured in the absence and presence of peptides as described in the Examples. Data are expressed as the percent of specific binding (˜5 pmol) observed in the absence of peptide and represent the means±S.E. derived from three experiments. […]
# (§2) Protein Interaction Assays—The GPR domain of AGS3 (Pro^463-Ser^650) containing the four GPR motifs was generated as a glutathione S-transferase fusion protein by polymerase chain reaction using the full-length cDNA of AGS3 as a template. […] The interaction of GST-AGS3-GPR and HIS-tagged AGS3-GPR with G-proteins was assessed by protein interaction experiments using purified G-protein as described previously (33). […]
# Giα2 = molecular target: T2, Giα2 (Homo sapiens, UniProt P04899); experiment: GTPγS binding assay, Giα2; format: biochemical; conditions: G-protein 100 nM, 30 min, 24° C.; read-out: IC50 for inhibition of GTPγS binding to Giα2
# T2 construct: made in house; host or cells: Sf9 insect cells
# T2 sequence (P04899 whole entry): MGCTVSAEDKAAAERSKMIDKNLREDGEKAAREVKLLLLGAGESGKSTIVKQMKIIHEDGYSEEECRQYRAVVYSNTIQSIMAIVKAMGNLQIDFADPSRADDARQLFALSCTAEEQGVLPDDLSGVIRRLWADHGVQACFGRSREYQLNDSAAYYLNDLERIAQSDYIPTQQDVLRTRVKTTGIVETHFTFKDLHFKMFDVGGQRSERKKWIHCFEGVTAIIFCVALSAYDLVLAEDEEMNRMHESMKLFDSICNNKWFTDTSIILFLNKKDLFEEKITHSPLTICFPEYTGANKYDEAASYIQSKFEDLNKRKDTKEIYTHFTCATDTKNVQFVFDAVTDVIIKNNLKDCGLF
# Method: (§3) A and B, the carboxyl region of AGS3 (Pro^463-Ser^650) containing all four GPR repeats was generated as a His-tagged (A) or GST fusion (B) protein for protein interaction assays as described under Examples. All interactions were done in the presence of 10 μM GDP, and the input lanes represent one-tenth of the G-protein used in each interaction assay. A, Giα1 (75 nM) was incubated with 300 nM His-tagged AGS3-GPR in the absence and presence of increasing amounts of the GPR peptide, after which bound Giα was isolated on a nickel affinity matrix, and samples were processed for immunoblotting with Giα antisera. The blot in the upper panel of A was stripped and reprobed with AGS3 antisera to provide internal controls for protein loading. B, Giα2 (75 nM) was incubated with 300 nM AGS3-GPR or GST in the presence and absence of 100 μM GPR consensus peptide, GPR peptide Q15A, or GPR peptide R23F. The immunoblots presented in A and B are representative of three experiments. C and D, GTPγ^35S binding to G-proteins (100 nM) was measured in the absence and presence of peptides as described in the Examples. Data are expressed as the percent of specific binding (˜5 pmol) observed in the absence of peptide and represent the means±S.E. derived from three experiments. The concentration of peptides in D is 10 μM.
# GTPγS Binding Assays—GTPγS binding assays were generally conducted as described (39). G-proteins (100 nM) were preincubated for 20 min at 24° C. in the presence and absence of GPR peptides. Binding assays (duplicate determinations) were initiated by addition of 0.5 μM GTPγS (4.0×10^4 dpm/pmol), and incubations (total volume=50 μl) were continued for 30 min at 24° C. Both preincubations and GTPγS binding assays were conducted in binding buffer containing 2 mM MgCl2. Reactions were terminated by rapid filtration through nitrocellulose filters with 4×4-ml washes of stop buffer (50 mM Tris-HCl, 5 mM MgCl2, 1 mM EDTA, pH 7.4, at 4° C.). Radioactivity bound to the filters was determined by liquid scintillation counting. Nonspecific binding was defined by 100 μM […].
# [2] = molecular target: T3, Giα2 binding to GST-AGS3-GPR (Homo sapiens, UniProt P04899); experiment: Protein interaction assay: Giα2 binding to AGS3-GPR with GPR peptides; conditions: 10 μM GDP; read-out: IC50 for blocking the binding of Giα2 to GST-AGS3-GPR
# T3 construct: made in house; host or cells: Sf9 insect cells (Giα2)
# T3 sequence (P04899 2-355 limits assumed): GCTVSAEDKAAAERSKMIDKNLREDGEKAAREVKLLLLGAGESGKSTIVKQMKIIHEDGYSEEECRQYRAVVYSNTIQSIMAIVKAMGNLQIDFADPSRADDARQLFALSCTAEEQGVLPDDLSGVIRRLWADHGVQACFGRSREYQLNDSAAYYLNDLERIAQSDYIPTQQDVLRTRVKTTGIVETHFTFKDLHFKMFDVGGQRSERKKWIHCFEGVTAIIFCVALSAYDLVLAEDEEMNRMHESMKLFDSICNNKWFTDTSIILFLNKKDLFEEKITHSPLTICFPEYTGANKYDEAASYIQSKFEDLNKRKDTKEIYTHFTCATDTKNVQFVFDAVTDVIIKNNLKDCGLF
# Method: as §1, §2
# Giα1 = molecular target: T4, Giα1 (Homo sapiens, UniProt P63096); experiment: GTPγS binding assay, Giα1; format: biochemical
# T4 construct: made in house; host or cells: Sf9 insect cells
# T4 sequence (P63096 whole entry): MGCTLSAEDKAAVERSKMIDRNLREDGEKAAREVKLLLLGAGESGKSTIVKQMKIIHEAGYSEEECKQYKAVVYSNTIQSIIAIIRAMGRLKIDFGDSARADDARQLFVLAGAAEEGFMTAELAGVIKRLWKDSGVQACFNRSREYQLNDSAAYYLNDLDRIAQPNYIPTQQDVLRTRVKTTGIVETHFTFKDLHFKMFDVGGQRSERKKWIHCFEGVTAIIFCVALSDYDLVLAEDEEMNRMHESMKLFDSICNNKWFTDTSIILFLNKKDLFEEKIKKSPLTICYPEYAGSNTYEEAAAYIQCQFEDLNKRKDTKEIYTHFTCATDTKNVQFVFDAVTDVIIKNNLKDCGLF
# Method: as §3, with “The immunoblots presented in A and B are representative of three experiments.” left out, “The concentration of peptides in D is 10 μM.” left out
# GTPγS Binding Assays—GTPγS binding assays were generally conducted as described (39). […] Radioactivity bound to the filters was determined by liquid scintillation counting. […]
# Gtα = Gtα (Homo sapiens, UniProt P11488); experiment: Competition with Gβγ subunits for binding to Gtα
# Gtα, sequence (P11488 whole entry): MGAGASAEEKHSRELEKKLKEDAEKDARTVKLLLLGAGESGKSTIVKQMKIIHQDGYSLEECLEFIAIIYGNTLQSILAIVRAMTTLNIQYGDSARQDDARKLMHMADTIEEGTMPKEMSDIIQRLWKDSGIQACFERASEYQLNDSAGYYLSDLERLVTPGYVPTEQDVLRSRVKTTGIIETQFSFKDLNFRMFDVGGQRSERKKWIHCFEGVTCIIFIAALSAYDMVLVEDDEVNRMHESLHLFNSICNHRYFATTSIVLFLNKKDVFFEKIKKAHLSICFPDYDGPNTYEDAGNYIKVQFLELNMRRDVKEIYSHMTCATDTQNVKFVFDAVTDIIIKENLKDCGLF
molecule,measurement,setting,value
TMGEEDFFDLLAKSQSKRMDDQRVDLAG-NH2 [GPR consensus peptide],IC50,[1],~200 nM
same,IC50,Giα2,~200 nM
same,IC50,[2],~200 nM
same,IC50,"Giα1; G-protein 100 nM, 30 min, 24° C., read-out: IC50 for inhibition of GTPγS binding to Giα1",~200 nM
"AGS3-GPR: GPR domain of AGS3 (Pro463-Ser650) containing the four GPR motifs, GST or His-tagged (protein, left off: a dimerising Fc or GST, GPR domain of AGS3 (Pro463-Ser650) containing the four GPR motifs, GST or His-tagged) PREGSHSPLDSADVRVQVPRTGIPRAPSSDEECFFDLLSKFQSSRMDDQRCPLEEGQAGAAEATAAPTLEERAAQPSVTASPQTEEFFDLIASSQSRRLDDQRASVGSLPGLRITLNNVGHLRGDGDPQEPGDEFFNMLIKYQSSRIDDQRCPPPDVLPRGPTMPDEDFFSLIQRVQAKRMDEQRVDL",competition with Gβγ subunits for binding to Gtα,Gtα,effectively competed
same,GTPγS binding to Giα1 (AGS3-GPR protein),Giα1,inhibited
